Patent publication US20260242824A1, “ONCOLYTIC VIRUSES TO TREAT BRAIN CANCER” (priority 2023, published 2026)

B1: Recombinant murine IL-11: recombinant murine IL-11 used to stimulate astrocytes at 50 ng/ml (protein, UniProt P47873 22-199, looked up)
Interleukin-11: PGPPAGSPRVSSDPRADLDSAVLLTRSLLADTRQLAAQMRDKFPADGDHSLDSLPTLAMSAGTLGSLQLPGVLTRLRVDLMSYLRHVQWLRRAGGPSLKTLEPELGALQARLERLLRRLQLLMSRLALPQAAPDQPVIPLGPPASAWGSIRAAHAILGGLHLTLDWAVRGLLLLKTRL

Experiments:
STAT3 = details: 2 μM in dimethyl sulfoxide; reported in ref [40]; cited from earlier work
[1] = test system: Tnfsf10 expression in astrocytes; assay: Tnfsf10 mRNA (qPCR) in stimulated primary mouse astrocytes; type: cell-based
Experimental: Isolation, culture, and stimulation of primary mouse astrocytes. Primary murine astrocytes were isolated from neonatal brains as previously described. Briefly, wild-type mouse pups aged 1-3 days were cryoanesthetized and decapitated. Whole brains were extracted, and 2-3 brains pooled per culture. After centrifugation for 5 min at 500×g, tissues were resuspended in 5 mL pre-warmed 0.25% Trypsin-EDTA (Thermo Fisher Scientific, 25200-072) and incubated at 37° C. for 10 min, followed by addition of culture medium to stop the dissociation reaction, and mechanical disaggregation by strong pipetting. The suspension was then filtered through a 70 μm nylon strainer and centrifuged 5 min at 500×g. Finally, the suspension was seeded onto T75 flasks (Falcon, 353136) that were coated at room temperature for 10 min with poly-L-lysine (Sigma-Aldrich, P4707). Mixed glial cultures were grown for at least 10 days prior to enrichment of astrocytes per the following method. […]
For quantitative analysis of gene transcription from cultured cells cellular RNA was extracted by use of RNeasy Kit (Qiagen, 74004). […] Quantitative measurement of gene expression was performed by qPCR using Taqman Fast Universal PCR Master Mix (Life Technologies, 4367846), MicroAmp Optical 384 well plates (Thermo Fisher Scientific, 43-098-49) and a ViiA 7 Real-Time PCR System (Applied Biosciences). […]

Molecule	effectiveness and cytotoxicity at the concentration used (STAT3)	TCM-induced expression of Tnfsf10 transcripts upon STAT inhibition ([1]; GL261 TCM-stimulated astrocytes, inhibitor 2 μM, vs vehicle)	Tnfsf10 expression upon recombinant murine IL-11 alone ([1]; astrocytes, 50 ng/ml, levels comparable to GL261 TCM, vs control medium)
O=C(Nc1ccc([N+](=O)[O-])cc1Cl)c1cc(Cl)ccc1O [BAY2353, Niclosamide]	effective but not cytotoxic	fully abrogated	–
B1	–	–	sufficient to induce Tnfsf10 expression
